Converted amounts (≈) assume the structure as drawn. Read-outs that look alike come from different tables or passages of the source.
Key:
rumen fluid = assay: in vitro rumen technique, propionic acid production; set-up: species or system calf; conditions: for increase in propionic acid: comparison with Salinomycin; for increase in production of propionic acid over control: comparison with Monensin
Protocol: The value of animal feeds generally has been determined directly by feeding the animal. British Pat. No. 1,197,826 details an in vitro rumen technique whereby the changes occurring in feeds brought about by microorganisms are measured more readily and with great accuracy in the evaluation of animal feeds. This technique involves the use of an apparatus in which the digestive processes of the animals are conducted and studied in vitro. The animal feeds, rumen inoculum and various growth promotants are introduced into and withdrawn from a laboratory unit under carefully controlled conditions and the changes taken place are studied critically and progressively during the consumption of the feed by the microorganisms. […] The change in propionic acid content is expressed as percent of the propionic acid content found in the control rumen fluid. Long term in vivo feeding studies are used to show a reliable correlation between propionic acid increase in the rumen fluid and improved animal performance.
Rumen fluid is collected from a fistulated calf which is fed on a commercial fattening ration plus hay. The rumen fluid is immediately filtered through cheese cloth, and 10 ml added to a 50 ml conical flask containing 400 mg of standard substrate (68% corn starch +17% cellulose +15% extracted soybean meal), 10 ml of a pH 6.8 buffer and the test compound. The flasks are gassed with oxygen free nitrogen for about two minutes, and incubated in a shaking water bath at 39° C. for about 16 hours. All tests are conducted in triplicate.
After incubation, 5 ml of the sample is mixed with 1 ml of 25% metaphosphoric acid. After 10 minutes 0.25 ml of formic acid is added and the mixture centrifuged at 1500 RPM for 10 minutes. Samples are then analyzed by gas-liquid chromatography by the method of D. W. Kellog, J. Dairy Science, 52, 1690 (1969). Peak heights for acetic, propionic and butyric acids are determined for samples from untreated and treated incubation flasks.

F. necrophorum = assay: in vitro MIC test (Table I); assay type: cell-based; conditions: Fusobacterium necrophorum; strain 84C004; 24 hours
Protocol: (§1) In Table I, below, the results of in vitro MIC tests are summarized. For this test each organism is inoculated in a series of test tubes of CP-63,517 to determine the minimal concentration of the antibiotic in mcg/ml which inhibits the growth of the organism over a period of 24 hours (MIC).

Corynebacterium pyogenes = assay: in vitro MIC test (Table I); assay type: cell-based; conditions: 24 hours
Protocol: as §1

Haemophilus parahemol. = assay: in vitro MIC test (Table I); assay type: cell-based; conditions: strain 54B002, 24 hours
Protocol: as §1

Pasteurella multocida = assay: in vitro MIC test (Table I); assay type: cell-based; conditions: 24 h
Protocol: as §1

Moraxella bovis = assay: in vitro MIC test (Table I); assay type: cell-based; conditions: strain 93A001, 24 hours
Protocol: as §1

Streptococcus pyogenes = assay: in vitro MIC test (Table I); assay type: cell-based; conditions: strain 020054, 24 hours
Protocol: as §1

Eimeria tenella = assay: efficacy against coccidial infections in chickens (Table II); assay type: in vivo; conditions: for Ratio: lesion score treated / infected control; for % Weight Gain / Average Degree of Infection: chicks; for Average Degree of Infection: lesion score 0 to 4, six days
Protocol: (§2) Efficacy data for Antibiotic CP-63,517 and its salts against coccidial infections in chickens was obtained in the following fashion. Groups of 3-5 ten-day old SPF white leghorn cockerel chicks were fed a mash diet containing Antibiotic CP-63,517, its sodium and/or potassium salt, or the known agents Monensin or Stenorol uniformly dispersed therein. After being on this ration for 24 hours each chick was inoculated per os with oocysts of the particular species of Eimeria being tested. Other groups of 3-5 ten-day old chicks were fed a similar mash diet free of any test compound. They were also infected after 24 hours and served as infected controls. Yet another group of 3-5 ten-day old chicks were fed the mash diet free of any test compound and were not infected with coccidia. These served as normal controls. The results of treatment were evaluated after five days in the case of E. acervulina, and six days for other challenges.
(§3) ^1 The criteria used to measure anticoccidial activity consisted of
(§4) lesion scores of 0 to 4 for Eimeria tenella after J. E. Lynch, "A New
(§5) Method for the Primary Evaluation of Anticoccidial Activity", Am. J. Vet.
(§6) modification of the scoring system devised by J. Johnson and W. H. Reid,
(§7) "Anticoccidial Drugs. Lesion Scoring Techniques in Battery and Floor Pen
(§8) Experiments in Chicks", Exp. Parasit. 28: 30-36 (1970). A constant ratio
(§9) was established by dividing the lesion score of each treated group by the
(§10) lesion score of the infected control.

Eimeria acervulina = assay: as above; assay type: in vivo; conditions: for Ratio: lesion score treated / infected control; for % Weight Gain / Average Degree of Infection: chicks; for Average Degree of Infection: lesion score 0 to 3, five days
Protocol: as §2, §3, §4, §5, §6, §7, §8, §9, §10

coccidial infections = assay: activity against coccidial infections in poultry; conditions: in vivo
Protocol: as §2

[1] = tested on: Gram-positive microorganisms; assay: inhibitory action against growth of Gram-positive microorganisms; assay type: cell-based; conditions: in vitro
Protocol: as §1

[2] = 10 ppm in diet, replicate (in parentheses)
[3] = 20 ppm in diet, replicate (in parentheses)
[4] = 30 ppm in diet, replicate (in parentheses)
[5] = 40 ppm in diet, replicate (in parentheses)
[6] = diet of chickens at levels of 5 to 40 ppm

## COC1CCC(OC2CC3(CC(O)C(C)C(C(C)C=C(C)C(=O)C(C)CC(C)C(=O)O)O3)OC2(C)C2CCC(C)C3(OC(C4OC(O)(CO)C(C)CC4C)CC3C)O2)OC1C (centres unmarked) [CP-63,517]
Rumen fluid; 5 μg/ml
  increase in propionic acid: about 66%
Rumen fluid; 20 μg/ml
  increase in propionic acid: about 86%
Rumen fluid; 10 micrograms per milliliter (10 μg/ml)
  increase in production of propionic acid over control: 95%
Rumen fluid; 20 micrograms per milliliter
  increase in production of propionic acid over control: 96%
F. necrophorum
  MIC: 25 µg/mL (≈ 28.8 µM)
Corynebacterium pyogenes; Trueperella pyogenes, strain 11D001, read-out: MIC
  MIC: 12.5 µg/mL (≈ 14.4 µM)
Corynebacterium pyogenes; strain 11D002
  MIC: 12.5 µg/mL (≈ 14.4 µM)
Corynebacterium pyogenes; strain 11D003
  MIC: 12.5 µg/mL (≈ 14.4 µM)
Haemophilus parahemol.
  MIC: 25 µg/mL (≈ 28.8 µM)
Pasteurella multocida; strain 59A013
  MIC: 50 µg/mL (≈ 57.7 µM)
Pasteurella multocida; strain 59A048
  MIC: 0.39 µg/mL (≈ 0.45 µM)
Moraxella bovis
  MIC: 50 µg/mL (≈ 57.7 µM)
Streptococcus pyogenes
  MIC: 0.1 µg/mL (≈ 0.115 µM)
Eimeria tenella; 5 ppm in diet
  Ratio: 0.3
  % Weight Gain: 63%
  Average Degree of Infection: 1.0
Eimeria tenella; 10 ppm in diet
  Ratio: 0.0
  % Weight Gain: 36%
  Average Degree of Infection: 0.0
Eimeria tenella; [2]
  Ratio: 0.3
  Average Degree of Infection: 1.0
  % Weight Gain: 66%
Eimeria tenella; 20 ppm in diet
  Ratio: 0.0
  % Weight Gain: 14%
  Average Degree of Infection: 0.0
Eimeria tenella; [3]
  Ratio: 0.0
  Average Degree of Infection: 0.0
  % Weight Gain: 26%
Eimeria tenella; 30 ppm in diet
  Ratio: 0.0
  % Weight Gain: 0%
  Average Degree of Infection: 0.0
Eimeria tenella; [4]
  Ratio: 0.0
  Average Degree of Infection: 0.0
  % Weight Gain: 23%
Eimeria tenella; 40 ppm in diet
  Ratio: 0.0
  % Weight Gain: 0%
  Average Degree of Infection: 0.0
Eimeria tenella; [5]
  Ratio: 0.0
  Average Degree of Infection: 0.0
  % Weight Gain: 2%
Eimeria tenella; [6]
  control of infections due to Eimeria tenella: effective in controlling infections
Eimeria acervulina; 5 ppm in diet
  Ratio: 1.10
  % Weight Gain: 11%
  Average Degree of Infection: 2.2
Eimeria acervulina; 10 ppm in diet
  Ratio: 0.50
  % Weight Gain: 40%
  Average Degree of Infection: 1.0
Eimeria acervulina; [2]
  Ratio: 0.30
  Average Degree of Infection: 0.6
  % Weight Gain: 0%
Eimeria acervulina; 20 ppm in diet
  Ratio: 0.40
  % Weight Gain: 30%
  Average Degree of Infection: 0.8
Eimeria acervulina; [3]
  Ratio: 0.20
  Average Degree of Infection: 0.4
  % Weight Gain: 60%
Eimeria acervulina; 30 ppm in diet
  Ratio: 0.20
  % Weight Gain: 0%
  Average Degree of Infection: 0.4
Eimeria acervulina; [4]
  Ratio: 0.30
  Average Degree of Infection: 0.6
  % Weight Gain: 0%
Eimeria acervulina; 40 ppm in diet
  Ratio: 0.60
  % Weight Gain: 0%
  Average Degree of Infection: 1.2
Eimeria acervulina; [5]
  Ratio: 0.60
  Average Degree of Infection: 1.2
  % Weight Gain: 0%
Eimeria acervulina; [6]
  control of infections due to E. acervulina: effective in controlling infections
Coccidial infections
  activity against coccidial infections in poultry: excellent activity
[1]
  antibacterial / growth inhibitory activity: exhibits inhibitory action against the growth of a number of Gram-positive microorganisms
